Measurements taken from the supplement of paper PMC10307832.

What was measured:
Assay in all cases: relative viability (nuclei count vs DMSO), 5 days (fraction); higher = more cells survive
[1] = compound: Cc1cnc(Nc2ccc(OCCN3CCCC3)cc2)nc1Nc1cccc(S(=O)(=O)NC(C)(C)C)c1 [Fedratinib] + CC1(C)CCC(c2ccc(Cl)cc2)=C(CN2CCN(c3ccc(C(=O)NS(=O)(=O)c4ccc(N[C@H](CCN5CCOCC5)CSc5ccccc5)c(S(=O)(=O)C(F)(F)F)c4)cc3)CC2)C1 [Navitoclax] (partner 0.5 µM)
Procedure, shortened: (§1)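 Medians of duplicate plates are given as relative viability. That measure is the nuclei count in treated wells divided by the count in vehicle wells. Counts were taken on 4× images of lung cancer cell lines in 1536-well plates, 5 days after pin-tool dosing the day after seeding with one drug alone or a fixed anchor-drug dose plus five library-drug doses (not always all listed) in √10 steps.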

[2] = compound: COC1=CC=C(C=C1)COC2=C(C=C(C=C2)CC3=CN=C(N=C3N)N)OC [GW-2580] + CS(=O)(=O)N1CCN(Cc2cc3nc(-c4cccc5[nH]ncc45)nc(N4CCOCC4)c3s2)CC1 [Pictilisib] (partner 1 µM)
Procedure, shortened: as §1

[3] = compound: Cc1cnc(Nc2ccc(OCCN3CCCC3)cc2)nc1Nc1cccc(S(=O)(=O)NC(C)(C)C)c1 [Fedratinib] + Cc1nc(Nc2ncc(C(=O)Nc3c(C)cccc3Cl)s2)cc(N2CCN(CCO)CC2)n1 [Dasatinib] (partner 0.075 µM)
Procedure, shortened: as §1

[4] = compound: COC1=CC=C(C=C1)COC2=C(C=C(C=C2)CC3=CN=C(N=C3N)N)OC [GW-2580] + Nc1ncn([C@H]2C[C@H](O)[C@@H](CO)O2)c(=O)n1 [Decitabine] (partner 2 µM)
Procedure, shortened: as §1

[5] = compound: COC1=CC=C(C=C1)COC2=C(C=C(C=C2)CC3=CN=C(N=C3N)N)OC [GW-2580] + CC(=O)Nc1cccc(-n2c(=O)n(C3CC3)c(=O)c3c(Nc4ccc(I)cc4F)n(C)c(=O)c(C)c32)c1 [Trametinib] (partner 0.02 µM)
Procedure, shortened: as §1

| Cell Line | relative viability ([1]; first compound 0.1 µM) | relative viability ([1]; first compound 0.3162 µM) | relative viability ([1]; first compound 1 µM) | relative viability ([2]; first compound 0.08 µM) | relative viability ([2]; first compound 0.8 µM) | relative viability ([2]; first compound 2.53 µM) | relative viability ([2]; first compound 8 µM) | relative viability ([3]; first compound 0.1 µM) | relative viability ([3]; first compound 0.3162 µM) | relative viability ([3]; first compound 1 µM) | relative viability ([4]; first compound 0.08 µM) | relative viability ([4]; first compound 0.8 µM) | relative viability ([4]; first compound 2.53 µM) | relative viability ([4]; first compound 8 µM) | relative viability ([5]; first compound 0.08 µM) | relative viability ([5]; first compound 0.8 µM) | relative viability ([5]; first compound 2.53 µM) | relative viability ([5]; first compound 8 µM) |
| --- | --- | --- | --- | --- | --- | --- | --- | --- | --- | --- | --- | --- | --- | --- | --- | --- | --- | --- |
| NCI-H727 | 0.381 | 0.346 | 0.213 | 0.355 | 0.622 | 0.349 | 0.372 | 0.296 | 0.299 | 0.392 | 0.784 | 1.12 | 0.808 | 0.768 | 0.417 | 0.382 | 0.364 | 0.383 |
| NCI-H1355 | 0.796 | 0.973 | 0.949 | 0.476 | 0.43 | 0.274 | 0.421 | 0.67 | 0.75 | 0.374 | 0.314 | 0.339 | 0.322 | 0.353 | 0.469 | 0.502 | 0.35 | 0.443 |
| HOP-62 | 1.03 | 1.01 | 1.07 | 0.909 | 0.72 | 0.63 | 0.736 | 0.739 | 0.6 | 0.503 | 0.174 | 0.192 | 0.231 | 0.23 | 0.406 | 0.412 | 0.359 | 0.378 |
| NCI-H2085 | 1.01 | 1.01 | 0.883 | 0.498 | 0.386 | 0.461 | 0.494 | 0.259 | 0.26 | 0.246 | 0.577 | 0.542 | 0.541 | 0.589 | 0.526 | 0.515 | 0.484 | 0.638 |
